A word on the IC50: it is the concentration needed to halve the response being measured.

From patent US10906905B2, “Five-membered heteroaryl ring bridged ring derivative, preparation method therefor and medical use thereof” (Jiangsu Hengrui Medicine Co., Ltd., priority 2016, dated 2021) come the findings set out here.

A value given as a limit tells only on which side of the number the result lay.

Test [1] concerns the target recombinant human VEGFR2 enzyme (Homo sapiens (Human), UniProt P35968). The test is described as follows: Inhibition of VEGFR2 kinase activity (Z'-LYTE Kinase Assay Kit). Type of test: biochemical. The note with it: ATP 50 μM; read-out: IC50 of inhibition effect on VEGFR2 kinase activity. As to the method:
The inhibition effect of VEGFR2 kinase activity in vitro was determined by the following method.
The inhibition effect of the compounds of the present invention on VEGFR2 kinase activity was determined by the following experimental method:
After reaction at 25° C. for 2 hours, 5 μL of detection reagent was added to each well. […] The IC50 values of the compounds for enzyme inhibition were calculated using Graphpad prism software based on each concentration of the compound and the corresponding signal value thereof.

Another test concerns the target TGFβRI kinase ALK5 (Homo sapiens (Human), UniProt P36897). The test is described as follows: Inhibition of TGFβRI kinase ALK5 activity (TGFβRI kinase assay kit, ADP-Glo). It counts as biochemical. To be noted: ATP 50 μM; read-out: IC50 of inhibition effect on TGFβRI kinase ALK5 activity. The method in brief:
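Kinase reaction: 2 ng/μL enzyme in Tris pH 7.5, MgCl2, BSA buffer with 50 μM ATP and 0.2 μg/μL substrate peptide, 2.5 h at 27 °C. ADP formation read by ADP-Glo luminescence over 3-fold compound dilutions; IC50 calculated from signal versus concentration.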
(In general: ADP-Glo first removes unused ATP, then detects ADP through luciferase.)

Test [2] concerns Smad signaling pathway of TGFβRI. The test is described as follows: Inhibition of Smad signaling pathway of TGFβRI (3TP-lux luciferase reporter in HepG2 cell). Type of test: cell-based. The note with it: Homo sapiens; HepG2 cell, 3TP-lux plasmid, 18 hours; read-out: IC50 on the inhibition of Smad signaling pathway of TGFβRI. Background: A reporter such as luciferase makes a cellular process visible.

The target of another test is p38α kinase (Homo sapiens (Human), UniProt Q16539). The test is described as follows: Inhibition of p38α kinase activity (p38α kinase assay kit, ADP-Glo). It counts as biochemical. To be noted: ATP 50 μM; read-out: IC50 of inhibition effect on p38α kinase activity. How it is done: The inhibition of p38α kinase activity in vitro was determined by the following method.
The inhibition effect of the compounds of the present invention on p38a kinase activity was determined by the following experimental method:
p38α kinase assay kit (V9591, Promega) was used to assay enzyme activity. 2 μl of enzyme solution (the final concentration of enzyme in the reaction system was 0.5 ng/μL) formulated with reaction buffer (40 mM Tris pH 7.5, 20 mM MgCl2, 0.1 mg/ml BSA), 1 μl of a 3-fold gradient dilution of the compounds dissolved in 5% DMSO, and 2 μl of a mixed solution of ATP and p38 substrate peptide (the final concentration of ATP was 50 μM, and the final concentration of substrate was 0.2 μg/μL) were added successively to a 384-well plate (4514, Corning). After reaction at 27° C. for 2.5 hours, 5 μl of ADP-Glo solution in the kit was added to each well, then the plate was placed at 27° C. for 40 minutes. 10 μl of kinase assay reagent was then added to each well, then the plate was placed at 27° C. for 30 minutes. The chemiluminescence signal values were measured with a Victor 3 (PerkinElmer) multi-function microplate reader. The IC50 values of the compounds on enzyme inhibition were calculated using Graphpad prism software based on each concentration of the compound and the corresponding signal value thereof.

A further test deals with NIH3T3 cell. The test is described as follows: Inhibition of NIH3T3 cell proliferation (CellTiter-Glo). Type of test: cell-based. The note with it: Mus musculus, 72 hours, 0.5% FBS. How it is done:
The inhibition effect of the compounds of the present invention on NIH3T3 cell proliferation was determined by the following in vitro test.
The inhibition effect of the compounds of the present invention on NIH3T3 cell proliferation was determined by the following experimental method:
On a 96-well white plate with transparent bottom (3903, Corning), 100 μL of NIH3T3 cell (GNM6, Cell Bank of Typical Culture Collection Committee of Chinese Academy of Sciences) was seeded in a DMEM medium containing 10% FBS in each well. The seeding density is 2000 cells/well. The cells were incubated overnight at 37° C., 5% CO2. After overnight incubation, each well was replaced with 90 μL of DMEM medium containing 0.5% FBS. 10 μl of a 3-fold gradient dilution of the compounds with DMEM medium containing 0.5% FBS was then added, and the plate was incubated for 72 hours in a cell incubator at 37° C., 5% CO2. Finally, 50 μL of CellTiter-Glo (G7573, Promega) was added to each well. After incubation for 10 minutes at room temperature, the chemiluminescence signal values were measured with a Victor 3 microplate reader (PerkinElmer). The IC50 values of the compounds were calculated using Graphpad Prism software based on each concentration of the compound and the corresponding signal value thereof.
For orientation: In ATP-based viability assays light output follows the ATP content of the culture.

Sequence of p38α kinase (Q16539 whole entry): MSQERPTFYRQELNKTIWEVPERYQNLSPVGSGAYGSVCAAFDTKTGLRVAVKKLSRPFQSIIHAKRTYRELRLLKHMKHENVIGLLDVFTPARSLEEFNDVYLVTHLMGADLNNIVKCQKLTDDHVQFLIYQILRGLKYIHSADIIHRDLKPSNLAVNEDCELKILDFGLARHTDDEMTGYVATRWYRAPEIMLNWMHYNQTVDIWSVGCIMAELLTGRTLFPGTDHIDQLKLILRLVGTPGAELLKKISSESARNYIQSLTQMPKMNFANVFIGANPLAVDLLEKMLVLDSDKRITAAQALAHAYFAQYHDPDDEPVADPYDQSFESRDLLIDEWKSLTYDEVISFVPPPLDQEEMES
Sequence of TGFβRI kinase ALK5 (P36897 34-503): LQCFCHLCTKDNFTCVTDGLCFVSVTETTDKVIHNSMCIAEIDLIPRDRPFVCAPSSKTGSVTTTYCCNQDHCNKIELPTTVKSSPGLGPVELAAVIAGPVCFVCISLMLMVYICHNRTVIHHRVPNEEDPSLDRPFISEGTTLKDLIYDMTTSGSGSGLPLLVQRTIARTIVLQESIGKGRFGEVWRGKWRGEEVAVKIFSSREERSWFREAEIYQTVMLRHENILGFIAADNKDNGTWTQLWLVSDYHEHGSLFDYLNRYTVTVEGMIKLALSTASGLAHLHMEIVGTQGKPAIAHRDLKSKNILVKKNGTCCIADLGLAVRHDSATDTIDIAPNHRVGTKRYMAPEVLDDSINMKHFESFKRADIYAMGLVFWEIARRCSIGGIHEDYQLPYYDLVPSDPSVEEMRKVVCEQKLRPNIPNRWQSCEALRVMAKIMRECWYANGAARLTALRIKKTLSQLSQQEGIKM
Sequence of recombinant human VEGFR2 enzyme (P35968 20-1356): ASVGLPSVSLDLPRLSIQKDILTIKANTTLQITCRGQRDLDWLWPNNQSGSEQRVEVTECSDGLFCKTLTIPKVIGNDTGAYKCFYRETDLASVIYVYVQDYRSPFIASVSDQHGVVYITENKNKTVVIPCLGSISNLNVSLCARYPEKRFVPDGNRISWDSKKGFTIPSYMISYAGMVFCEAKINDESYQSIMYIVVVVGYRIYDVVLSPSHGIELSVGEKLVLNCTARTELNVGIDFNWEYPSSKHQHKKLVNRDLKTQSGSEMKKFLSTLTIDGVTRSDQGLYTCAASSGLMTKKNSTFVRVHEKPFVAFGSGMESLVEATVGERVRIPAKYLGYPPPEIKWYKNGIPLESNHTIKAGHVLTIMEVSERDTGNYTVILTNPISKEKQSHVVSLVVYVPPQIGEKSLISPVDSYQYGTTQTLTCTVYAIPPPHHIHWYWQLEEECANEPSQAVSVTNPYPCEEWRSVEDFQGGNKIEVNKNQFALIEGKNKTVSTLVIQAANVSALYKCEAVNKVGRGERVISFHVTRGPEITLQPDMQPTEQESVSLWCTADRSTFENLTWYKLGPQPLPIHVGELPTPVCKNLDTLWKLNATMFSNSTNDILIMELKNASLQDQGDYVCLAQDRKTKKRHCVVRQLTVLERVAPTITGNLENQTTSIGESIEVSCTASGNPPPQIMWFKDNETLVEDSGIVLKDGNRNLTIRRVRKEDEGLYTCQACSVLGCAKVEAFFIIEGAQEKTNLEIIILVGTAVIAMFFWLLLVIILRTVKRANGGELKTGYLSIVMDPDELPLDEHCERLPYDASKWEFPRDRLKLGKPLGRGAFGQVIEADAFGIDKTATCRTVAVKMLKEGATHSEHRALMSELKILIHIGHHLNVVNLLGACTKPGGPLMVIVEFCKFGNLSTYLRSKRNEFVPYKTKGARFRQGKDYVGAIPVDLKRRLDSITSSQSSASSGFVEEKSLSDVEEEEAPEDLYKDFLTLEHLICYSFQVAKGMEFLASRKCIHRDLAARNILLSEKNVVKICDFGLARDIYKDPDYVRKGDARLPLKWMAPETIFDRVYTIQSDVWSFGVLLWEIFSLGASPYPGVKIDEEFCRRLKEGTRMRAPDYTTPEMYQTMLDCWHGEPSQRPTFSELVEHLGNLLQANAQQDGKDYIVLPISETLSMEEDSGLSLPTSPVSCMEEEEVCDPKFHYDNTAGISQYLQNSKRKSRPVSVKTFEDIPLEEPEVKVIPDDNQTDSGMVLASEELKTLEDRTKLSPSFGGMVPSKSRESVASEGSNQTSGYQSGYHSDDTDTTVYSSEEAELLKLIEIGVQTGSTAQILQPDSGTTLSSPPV

On to `Cc1cccc(-c2nc3n(c2-c2ccnc(NCCN4CCOCC4)c2)[C@H]2CC[C@@H]3C2)n1` [Example 16-1, 4-((5S,8R)-2-(6-Methylpyridin-2-yl)-5,6,7,8-tetrahydro-5,8-methanoimidazo[1,2-a]pyridin-3-yl)-N-(2-morpholinoethyl)pyridin-2-amine], for which the IC50 is > 10000 nM in test [1] and 77 nM on TGFβRI kinase ALK5.
As for `Cc1cccc(-c2nn3c(c2-c2ccc4nccc(C(N)=O)c4c2)C2CCC3CC2)n1` [Example 36, 6-(2-(6-Methylpyridin-2-yl)-4,5,6,7-tetrahydro-4,7-ethanopyrazolo[1,5-a]pyridin-3-yl)quinoline-4-carboxamide], the IC50 in test [2] was found to be 18 nM; in test [1] it was 1010 nM; on p38α kinase, 598 nM; at TGFβRI kinase ALK5 it was 21 nM.
As for `Cn1cc(-c2cc(-c3c(-c4ccc(F)cn4)nc4n3[C@H]3CC[C@@H]4C3)ccn2)cn1` [Example 40-1, (5S,8R)-2-(5-Fluoropyridin-2-yl)-3-(2-(1-methyl-1H-pyrazol-4-yl)pyridin-4-yl)-5,6,7,8-tetrahydro-5,8-methanoimidazo[1,2-a]pyridine], the IC50 was 18 nM in test [2]; 2080 nM in test [1]; 1360 nM at p38α kinase; 42 nM with NIH3T3 cell; 10 nM at TGFβRI kinase ALK5.
On to `Cc1cccc(-c2nc3n(c2-c2ccnc(-c4ccc(S(C)(=O)=O)cc4)c2)[C@@H]2CC[C@H]3C2)n1` [Example 3-2, (5R,8S)-2-(6-Methylpyridin-2-yl)-3-(2-(4-(methylsulfonyl)phenyl)pyridin-4-yl)-5,6,7,8-tetrahydro-5,8-methanoimidazo[1,2-a]pyridine], for which the IC50 amounted to 31 nM in test [2], 928 nM in test [1], 654 nM on p38α kinase and 23 nM at TGFβRI kinase ALK5.
Turning to `CS(=O)(=O)c1ccc(-c2cc(-c3c(-c4ccc(F)cn4)nc4n3[C@H]3CC[C@@H]4C3)ccn2)cc1` [Example 42-1, (5S,8R)-2-(5-Fluoropyridin-2-yl)-3-(2-(4-(methylsulfonyl)phenyl)pyridin-4-yl)-5,6,7,8-tetrahydro-5,8-methanoimidazo[1,2-a]pyridine], the IC50 is 31 nM in test [2], 9740 nM in test [1] and 7780 nM at p38α kinase.
Turning to `Cc1cccc(-c2nc3n(c2-c2ccnc(-c4ccc(C(N)=O)cc4)c2)C2CCC3C2)n1` (stereo not shown) [Example 4, 4-(4-(2-(6-Methylpyridin-2-yl)-5,6,7,8-tetrahydro-5,8-methanoimidazo[1,2-a]pyridin-3-yl)pyridin-2-yl)benzamide], the IC50 in test [2] worked out at 86 nM; in test [1], 4060 nM; at p38α kinase, 638 nM; on TGFβRI kinase ALK5, 29 nM.
